Measured values taken from US20240277684A1, “BLOCKADE OF CHEMOKINE (C-C MOTIF) RECEPTOR 2 DURING FLUID RESUSCITATION” (University of South Florida, priority 2022, published 2024).

What was measured:
[1] = rats; cited from earlier work
[2] = tested on: hemorrhagic shock; experiment: Example 2 Series 2: 60 min hemorrhagic shock, single dose, fluid resuscitation until t=300 min; format: in vivo, rat
Procedure: The hemorrhagic shock models were performed as described previously, with slight modifications (DeSantis A J, et al., The Chemokine (C-C Motif) Receptor 2 Antagonist INCB3284 Reduces Fluid Requirements and Protects From Hemodynamic Decompensation During Resuscitation From Hemorrhagic Shock. Crit Care Explor 2022;4(5):e0701; Bach H H, et al., Chemokine (C-X-C motif) receptor 4 and atypical chemokine receptor 3 regulate vascular alpha(1)-adrenergic receptor function. Mol Med 2014; 20:435-47; Nassoiy S P, et al., Effects of the Kv7 voltage activated potassium channel inhibitor linopirdine in rat models of hemorrhagic shock. Clin Exp Pharmacol Physiol 2018. doi: 10.1111/1440-1681.12958. PubMed PMID: 29702725; Bach H H, et al., Proteasome inhibition prolongs survival during lethal hemorrhagic shock in rats. J Trauma Acute Care Surg 2013; 74(2):499-507). In brief, anesthesia induction was performed with the animal and isoflurane-soaked gauze placed in a bell jar. After anesthesia induction, the animals were transferred to the operative field and anesthesia was maintained with 2.7% isoflurane administered via nose-cone inhalation with the SomnoSuite small animal anesthesia system (Kent Scientific Corporation, Torrington, CT, USA). […] Using a direct cut-down technique, the left femoral artery was isolated and cannulated with a 24-gauge peripheral intravenous catheter to allow for blood withdrawal, hemodynamic monitoring, drug administration, and fluid resuscitation. After catheter placement, isoflurane was decreased to 1.5%. Hemodynamics were continuously monitored with the Surgivet invasive blood pressure monitor (Med-Electronics, Beltsville, MD, USA). Blood pressures were recorded at 1-5 min intervals during the hemorrhage and resuscitation periods. Four subsequent series of experiments were performed. All experiments in each series were performed in alternating order. In all experiments animals were continuously monitored and remained under general anesthesia until euthanasia or death, as defined by asystole or loss of pulse pressure.
Series 2: Rats were hemorrhaged to a MAP of less than or equal to 30 mmHg for a period of 60 min, followed by fluid resuscitation until t=300 min as in Series 1. At the end of the hemorrhagic shock period (t=60 min), animals were injected with 1 mL of normal saline (NS) (n=6), 5 μmol/kg (n=6) INCB3284 in 1 mL NS or 1.1 μmol/kg SB 328437 (n=6) in 1 mL NS at t=60 min. At t=0 min, 60 min, 120 min, 180 min, 240 min and 300 min, blood samples (0.3 ml) were obtained and used for arterial blood gas analyses and measurements of routine laboratory parameters. At t=300 min, surviving animals were euthanized (5% isoflurane inhalation, bilateral pneumothorax).
Arterial blood gases and routine laboratory parameters. Arterial blood gases, electrolytes, creatinine, lactate, hematocrit and hemoglobin were analyzed using the Element point of care veterinary blood gas, electrolyte and critical care analyzer (Cuattro Veterinary USA, Loveland, CO, USA).

[3] = tested on: hemorrhagic shock; experiment: Example 1 first series: 30 min hemorrhagic shock, fluid resuscitation until t=90 min; format: in vivo, rat
Procedure: In vivo animal experiments. All procedures were performed in accordance with the National Institutes of Health Guidelines for Use of Laboratory Animals and were approved by the University of South Florida Institutional Animal Care and Use Committeee (IS00008139). Male Sprague-Dawley rats (300-400 g, Envigo, Indianapolis, IN, USA). were anesthetized with 1.7% isoflurane via nose-cone inhalation with the SomnoSuite anesthesia system (Kent Scientific, Torrington, CT, USA). […] The left femoral artery was isolated and cannulated with a 24-gauge peripheral intravenous catheter to allow for blood withdrawal, hemodynamic monitoring, drug administration, and fluid resuscitation. Hemodynamics were continuously monitored with the SurgivetV6400 blood pressure monitor (Med-Electronics, Beltsville, MD, USA), and blood pressures and heart rate were recorded at 1-10 min intervals. All animals were observed over a 10 min period to ensure hemodynamic stability before start of the experiments. All experiments were performed randomized in alternating order. […] Physiol Res 2019; 68(4):675-679; Nassoiy S P, et al., Effects of the Kv7 voltage-activated potassium channel inhibitor linopirdine in rat models of haemorrhagic shock. Clin Exp Pharmacol Physiol 2018; Nassoiy S P, et al., Kv7 voltage-activated potassium channel inhibitors reduce fluid resuscitation requirements after hemorrhagic shock in rats. J Biomed Sci 2017; 24(1):8; Bach H Ht, et al., Proteasome inhibition prolongs survival during lethal hemorrhagic shock in rats. J Trauma Acute Care Surg 2013; 74(2):499-507; Bach H Ht, et al., Chemokine (C-X-C motif) receptor 4 and atypical chemokine receptor 3 regulate vascular alpha(1)-adrenergic receptor function. Mol Med 2014; 20:435-447), with slight modifications. In brief, rats were hemorrhaged to a mean arterial blood pressure (MAP) of less than or equal to 30 mmHg for a period of 30 minutes. At the end of the HS period (t=30 min), animals were injected with either vehicle (1 mL LR) or drug in 1 mL LR, followed by fluid resuscitation with 1 mL bolus injections of LR to maintain a systolic blood pressure (SBP) of 90 mmHg or a MAP of 60 mmHg. To avoid fluid overload, bolus injections of LR were limited to 1 mL/min. […] Animals were then resuscitated until t=90 min. At t=0, 15, 30, 60 and 90 min, blood samples were obtained, and plasma prepared. Samples were stored at -70° C. until further processing. At t=90 min, animals were euthanized (isoflurane inhalation, bilateral pneumothorax).

**Q.** For COc1ccc([C@]2(O)CC[C@@H](N3CC[C@@H](NC(=O)CNC(=O)c4cccc(C(F)(F)F)c4)C3)CC2)cn1 [INCB3284], which half-live [1] is on record?
**A.** 168 min

**Q.** And the median survival time ([2]; 1.1 μmol/kg SB328437 or 5 μmol/kg INCB3284 at t=60 min)?
**A.** undefined

**Q.** And the “animals that survived the resuscitation period” value ([2]; 1.1 μmol/kg SB328437 or 5 μmol/kg INCB3284 at t=60 min, until t=300 min, n=6)?
**A.** all

**Q.** And the “reduction of fluid resuscitation requirements to achieve the target MAP” value ([2]; 5 μmol/kg at t=60 min, until t=220 min, p<0.05 vs. vehicle)?
**A.** 65%

**Q.** And the “fluid requirements to maintain hemodynamics” value ([3]; 1.1 μmol/kg at t=30 min, until t=90 min, p>0.05 vs. vehicle)?
**A.** 50 ± 1 mL/kg

**Q.** And the “effect on fluid requirements to maintain hemodynamics” value ([3]; 1.1 μmol/kg at t=30 min, vs vehicle)?
**A.** did not affect fluid requirements

**Q.** What about the “MAP during the observation period” value ([3]; 5.5 μmol/kg at t=30 min) of the same molecule?
**A.** increased MAP at various time points

**Q.** What about the “reduction of fluid requirements” value ([3]; 5.5 μmol/kg at t=30 min, until t=90 min, vs vehicle) of the same molecule?
**A.** 58±11%

**Q.** And the “fluid requirements to maintain hemodynamics” value ([3]; 5.5 μmol/kg at t=30 min, until t=90 min, p<0.05 vs. vehicle)?
**A.** 21.7 ± 6 mL/kg
